Numbers after ± are expanded uncertainties.
Test: mn = molality of the nth substance listed, in mol/kg
Conditions: 100 kPa, Liquid, Vibrating tube method

N[C@@H](Cc1c[nH]c2ccccc12)C(=O)O [L-tryptophan] + O
mass density [kg/m3]
Conditions | 278.65 K | 279.15 K | 279.65 K | 280.15 K | 280.65 K | 281.15 K | 281.65 K | 282.15 K | 282.65 K | 283.15 K
m1 = 0.0035 | 1000.16 ± 0.12 | 1000.15 ± 0.12 | 1000.13 ± 0.12 | 1000.11 ± 0.12 | 1000.09 ± 0.12 | 1000.06 ± 0.12 | 1000.02 ± 0.12 | 999.99 ± 0.12 | 999.95 ± 0.12 | 999.908 ± 0.12
m1 = 0.009 | 1000.52 ± 0.12 | 1000.51 ± 0.12 | 1000.49 ± 0.12 | 1000.47 ± 0.12 | 1000.44 ± 0.12 | 1000.41 ± 0.12 | 1000.38 ± 0.12 | 1000.34 ± 0.12 | 1000.3 ± 0.12 | 1000.26 ± 0.12
m1 = 0.0179 | 1001.09 ± 0.12 | 1001.08 ± 0.12 | 1001.06 ± 0.12 | 1001.03 ± 0.12 | 1001.01 ± 0.12 | 1000.98 ± 0.12 | 1000.94 ± 0.12 | 1000.9 ± 0.12 | 1000.87 ± 0.12 | 1000.82 ± 0.12
m1 = 0.0306 | 1001.9 ± 0.12 | 1001.88 ± 0.12 | 1001.86 ± 0.12 | 1001.84 ± 0.12 | 1001.81 ± 0.12 | 1001.78 ± 0.12 | 1001.74 ± 0.12 | 1001.71 ± 0.12 | 1001.66 ± 0.12 | 1001.62 ± 0.12
m1 = 0.0352 | 1002.2 ± 0.12 | 1002.18 ± 0.12 | 1002.16 ± 0.12 | 1002.13 ± 0.12 | 1002.11 ± 0.12 | 1002.07 ± 0.12 | 1002.04 ± 0.12 | 1002 ± 0.12 | 1001.96 ± 0.12 | 1001.91 ± 0.12
m1 = 0.0429 | 1002.69 ± 0.12 | 1002.67 ± 0.12 | 1002.65 ± 0.12 | 1002.62 ± 0.12 | 1002.59 ± 0.12 | 1002.56 ± 0.12 | 1002.52 ± 0.12 | 1002.48 ± 0.12 | 1002.44 ± 0.12 | 1002.39 ± 0.12
m1 = 0.0536 | 1003.37 ± 0.12 | 1003.35 ± 0.12 | 1003.33 ± 0.12 | 1003.3 ± 0.12 | 1003.27 ± 0.12 | 1003.23 ± 0.12 | 1003.2 ± 0.12 | 1003.15 ± 0.12 | 1003.11 ± 0.12 | 1003.06 ± 0.12
m1 = 0.0595 | 1003.74 ± 0.12 | 1003.72 ± 0.12 | 1003.7 ± 0.12 | 1003.67 ± 0.12 | 1003.64 ± 0.12 | 1003.6 ± 0.12 | 1003.56 ± 0.12 | 1003.52 ± 0.12 | 1003.48 ± 0.12 | 1003.43 ± 0.12
m1 = 0.0659 | 1004.14 ± 0.12 | 1004.12 ± 0.12 | 1004.09 ± 0.12 | 1004.07 ± 0.12 | 1004.03 ± 0.12 | 1004 ± 0.12 | 1003.96 ± 0.12 | 1003.92 ± 0.12 | 1003.87 ± 0.12 | 1003.82 ± 0.12
m1 = 0.0769 | 1004.83 ± 0.12 | 1004.81 ± 0.12 | 1004.78 ± 0.12 | 1004.75 ± 0.12 | 1004.72 ± 0.12 | 1004.68 ± 0.12 | 1004.64 ± 0.12 | 1004.6 ± 0.12 | 1004.56 ± 0.12 | 1004.5 ± 0.12

— the NIST ThermoML archive (doi:10.1021/acs.jced.9b00752)
